Measurements taken from patent US10889610B2, “Alpha-D-galactoside inhibitors of galectins” (GALECTO BIOTECH AB, priority 2016, dated 2021).

Molecular target: galectin-3 (Homo sapiens (Human), UniProt P17931)
Test: Fluorescence anisotropy assay, galectin-3 affinity
Type: binding
Conditions: inhibition of galectin / fluorescein tagged saccharide probe interaction
Description: Anal. Biochem. 334: 36-47, (Sörme et al., 2004) and Monovalent interactions of Galectin-1 By Salomonsson, Emma; Larumbe, Amaia; Tejler, Johan; Tullberg, Erik; Rydberg, Hanna; Sundin, Anders; Khabut, Areej; Frejd, Torbjorn; Lobsanov, Yuri D.; Rini, James M.; et al, From Biochemistry (2010), 49(44), 9518-9532, (Salomonsson et al., 2010). […] 100 nM albumin was included as a carrier to prevent protein loss at such low concentration of galectin.

galectin-3, sequence (P17931 whole entry): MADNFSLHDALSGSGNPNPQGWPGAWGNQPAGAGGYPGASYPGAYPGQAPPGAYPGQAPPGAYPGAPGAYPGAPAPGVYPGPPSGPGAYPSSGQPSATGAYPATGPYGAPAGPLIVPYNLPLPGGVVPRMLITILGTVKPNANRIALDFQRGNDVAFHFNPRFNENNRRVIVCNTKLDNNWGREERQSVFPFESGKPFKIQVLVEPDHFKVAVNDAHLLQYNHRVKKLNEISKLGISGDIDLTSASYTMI

Going from `N#Cc1cnc(S[C@H]2O[C@H](CO)[C@H](O)[C@H](n3cc(-c4cc(F)c(F)c(F)c4)nn3)[C@H]2O)cc1Br` [Example 1, 4-Bromo-5-cyano-2-pyridyl 3-deoxy-3-[4-(3,4,5-trifluorophenyl)-1H-1,2,3-triazol-1-yl]-1-thio-α-D-galactopyranoside] to `N#Cc1cnc(S[C@H]2O[C@H](CO)[C@H](O)[C@H](n3cc(-c4cc(F)c(F)c(F)c4)nn3)[C@H]2O)cc1Cl` [Example 2, 4-Chloro-5-cyano-2-pyridyl 3-deoxy-3-[4-(3,4,5-trifluorophenyl)-1H-1,2,3-triazol-1-yl]-1-thio-α-D-galactopyranoside], the Kd rises from 27 nM to 57 nM (2.1-fold).

`OC[C@H]1O[C@H](Sc2ccnc(Cl)c2)[C@H](O)[C@@H](n2cc(-c3cc(F)c(F)c(F)c3)nn2)[C@H]1O` [Example 3, 2-Chloro-4-pyridyl 3-deoxy-3-[4-(3,4,5-trifluorophenyl)-1H-1,2,3-triazol-1-yl]-1-thio-α-D-galactopyranoside] and `OC[C@H]1O[C@H](Sc2cc(Cl)ccn2)[C@H](O)[C@@H](n2cc(-c3cc(F)c(F)c(F)c3)nn2)[C@H]1O` [Example 7, 4-Chloro-2-pyridyl 3-deoxy-3-[4-(3,4,5-trifluorophenyl)-1H-1,2,3-triazol-1-yl]-1-thio-α-D-galactopyranoside] are within 1.5-fold of each other in Kd: 86 nM for the first, 120 nM for the second.

`N#Cc1ncc(Cl)cc1S[C@H]1O[C@H](CO)[C@H](O)[C@H](n2cc(-c3cc(F)c(F)c(F)c3)nn2)[C@H]1O` [Example 4, 5-Chloro-2-cyano-3-pyridyl 3-deoxy-3-[4-(3,4,5-trifluorophenyl)-1H-1,2,3-triazol-1-yl]-1-thio-α-D-galactopyranoside] and `N#Cc1ncc(Br)cc1S[C@H]1O[C@H](CO)[C@H](O)[C@H](n2cc(-c3cc(F)c(F)c(F)c3)nn2)[C@H]1O` [Example 6, 5-Bromo-2-cyano-3-pyridyl 3-deoxy-3-[4-(3,4,5-trifluorophenyl)-1H-1,2,3-triazol-1-yl]-1-thio-α-D-galactopyranoside] are within 1.5-fold of each other in Kd: 29 nM for the first, 22 nM for the second.

`N#Cc1ncc(S[C@H]2O[C@H](CO)[C@H](O)[C@H](n3cc(-c4cc(F)c(F)c(F)c4)nn3)[C@H]2O)cc1Br` [Example 5, 5-Bromo-6-cyano-3-pyridyl 3-deoxy-3-[4-(3,4,5-trifluorophenyl)-1H-1,2,3-triazol-1-yl]-1-thio-α-D-galactopyranoside] and `N#Cc1ncc(S[C@H]2O[C@H](CO)[C@H](O)[C@H](n3cc(-c4cc(F)c(Cl)c(F)c4)nn3)[C@H]2O)cc1Br` [Example 12, 5-Bromo-6-cyano-3-pyridyl 3-deoxy-3-[4-(4-chloro-3,5-difluorophenyl)-1H-1,2,3-triazol-1-yl]-1-thio-α-D-galactopyranoside] are within 1.5-fold of each other in Kd: 22 nM for the first, 16 nM for the second.

`OC[C@H]1O[C@H](Sc2cncc(Cl)c2)[C@H](O)[C@@H](n2cc(-c3cc(F)c(Cl)c(F)c3)nn2)[C@H]1O` [Example 9, 5-Chloro-3-pyridyl 3-deoxy-3-[4-(4-chloro-3,5-difluorophenyl)-1H-1,2,3-triazol-1-yl]-1-thio-α-D-galactopyranoside] and `Cc1c(F)cc(-c2cn([C@@H]3[C@@H](O)[C@@H](Sc4cncc(Cl)c4)O[C@H](CO)[C@@H]3O)nn2)cc1F` [Example 16, 5-Chloro-3-pyridyl 3-deoxy-3-[4-(3,5-difluoro-4-methylphenyl)-1H-1,2,3-triazol-1-yl]-1-thio-α-D-galactopyranoside] are within 1.5-fold of each other in Kd: 22 nM for the first, 18 nM for the second.

Compared with `N#Cc1ncc(S[C@H]2O[C@H](CO)[C@H](O)[C@H](n3cc(-c4cc(F)c(Cl)c(F)c4)nn3)[C@H]2O)cc1Cl` [Example 10, 5-Chloro-6-cyano-3-pyridyl 3-deoxy-3-[4-(4-chloro-3,5-difluorophenyl)-1H-1,2,3-triazol-1-yl]-1-thio-α-D-galactopyranoside], `N#Cc1ncc(Cl)cc1S[C@H]1O[C@H](CO)[C@H](O)[C@H](n2cc(-c3cc(F)c(Cl)c(F)c3)nn2)[C@H]1O` [Example 13, 5-Chloro-2-cyano-3-pyridyl 3-deoxy-3-[4-(4-chloro-3,5-difluorophenyl)-1H-1,2,3-triazol-1-yl]-1-thio-α-D-galactopyranoside] is 1.6-fold lower in Kd: 18 nM for the first, 11 nM for the second.

Going from `N#Cc1ncc(Br)cc1S[C@H]1O[C@H](CO)[C@H](O)[C@H](n2cc(-c3cc(F)c(Cl)c(F)c3)nn2)[C@H]1O` [Example 11, 5-Bromo-2-cyano-3-pyridyl 3-deoxy-3-[4-(4-chloro-3,5-difluorophenyl)-1H-1,2,3-triazol-1-yl]-1-thio-α-D-galactopyranoside] to `N#Cc1c(F)cc(-c2cn([C@@H]3[C@@H](O)[C@@H](Sc4cncc(Cl)c4)O[C@H](CO)[C@@H]3O)nn2)cc1F` [Example 14, 5-Chloro-3-pyridyl 3-deoxy-3-[4-(4-cyano-3,5-difluorophenyl)-1H-1,2,3-triazol-1-yl]-1-thio-α-D-galactopyranoside], the Kd rises from 11 nM to 180 nM (16-fold).

Compared with `OC[C@H]1O[C@H](Sc2cncc(Cl)c2)[C@H](O)[C@@H](n2cc(-c3cc(F)c(C(F)(F)F)c(F)c3)nn2)[C@H]1O` [Example 15, 5-Chloro-3-pyridyl 3-deoxy-3-[4-(3,5-difluoro-4-trifluoromethyl-phenyl)-1H-1,2,3-triazol-1-yl]-1-thio-α-D-galactopyranoside], `OC[C@H]1O[C@H](Sc2cncc(Cl)c2)[C@H](O)[C@@H](n2cc(-c3cc(F)c(Br)c(F)c3)nn2)[C@H]1O` [Example 17, 5-Chloro-3-pyridyl 3-deoxy-3-[4-(4-bromo-3,5-difluorophenyl)-1H-1,2,3-triazol-1-yl]-1-thio-α-D-galactopyranoside] is 3.5-fold lower in Kd: 97 nM for the first, 28 nM for the second.

`OC[C@H]1O[C@H](Sc2cncc(Cl)c2)[C@H](O)[C@@H](n2cc(-c3cc(F)c(Cl)c(Cl)c3)nn2)[C@H]1O` [Example 18, 5-Chloro-3-pyridyl 3-deoxy-3-[4-(3,4-dichloro-5-fluorophenyl)-1H-1,2,3-triazol-1-yl]-1-thio-α-D-galactopyranoside] and `OC[C@H]1O[C@H](Sc2cncc(Cl)c2)[C@H](O)[C@@H](n2cc(-c3ccc(Cl)c(F)c3)nn2)[C@H]1O` [Example 19, 5-Chloro-3-pyridyl 3-deoxy-3-[4-(4-chloro-3-fluorophenyl)-1H-1,2,3-triazol-1-yl]-1-thio-α-D-galactopyranoside] are within 1.5-fold of each other in Kd: 27 nM for the first, 34 nM for the second.

`OC[C@H]1O[C@H](Sc2ccc(Cl)c(Cl)c2)[C@H](O)[C@@H](n2cc(-c3cncc(F)c3)nn2)[C@H]1O` [Example 20, 3,4-Dichlorophenyl 3-deoxy-3-[4-(5-fluoro-3-pyridyl)-1H-1,2,3-triazol-1-yl]-1-thio-α-D-galactopyranoside] and `OC[C@H]1O[C@H](Sc2ccc(Cl)c(Cl)c2)[C@H](O)[C@@H](n2cc(-c3cncc(Cl)c3)nn2)[C@H]1O` [Example 22, 3,4-Dichlorophenyl 3-deoxy-3-[4-(5-chloro-3-pyridyl)-1H-1,2,3-triazol-1-yl]-1-thio-α-D-galactopyranoside] are within 1.5-fold of each other in Kd: 750 nM for the first, 694 nM for the second.

Work on `OC[C@H]1O[C@H](Sc2cncc(Cl)c2)[C@H](O)[C@@H](n2cc(-c3ccc(Cl)c(Cl)c3)nn2)[C@H]1O` [Example 21, 5-Chloro-3-pyridyl 3-deoxy-3-[4-(3,4-dichlorophenyl)-1H-1,2,3-triazol-1-yl]-1-thio-α-D-galactopyranoside] yielded a Kd of 31 nM.

Molecular target: galectin-1 (Homo sapiens (Human), UniProt P09382)
Sequence (P09382 whole entry): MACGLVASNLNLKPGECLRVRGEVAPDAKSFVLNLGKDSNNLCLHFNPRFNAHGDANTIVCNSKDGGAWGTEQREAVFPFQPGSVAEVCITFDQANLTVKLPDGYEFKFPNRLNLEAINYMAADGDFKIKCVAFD
Test: Fluorescence anisotropy assay, galectin-1 affinity
Type: binding
Conditions: inhibition of galectin / fluorescein tagged saccharide probe interaction
Description: The affinity of Example 1-22 for galectins were determined by a fluorescence anisotropy assay where the compound was used as an inhibitor of the interaction between galectin and a fluorescein tagged saccharide probe as described Sörme, P., Kahl-Knutsson, B., Huflejt, M., Nilsson, U. J., and Leffler H. (2004) Fluorescence polarization as an analytical tool to evaluate galectin-ligand interactions. Anal. Biochem. 334: 36-47, (Sörme et al., 2004) and Monovalent interactions of Galectin-1 By Salomonsson, Emma; Larumbe, Amaia; Tejler, Johan; Tullberg, Erik; Rydberg, Hanna; Sundin, Anders; Khabut, Areej; Frejd, Torbjorn; Lobsanov, Yuri D.; Rini, James M.; et al, From Biochemistry (2010), 49(44), 9518-9532, (Salomonsson et al., 2010). […] 100 nM albumin was included as a carrier to prevent protein loss at such low concentration of galectin.

Compared with `N#Cc1cnc(S[C@H]2O[C@H](CO)[C@H](O)[C@H](n3cc(-c4cc(F)c(F)c(F)c4)nn3)[C@H]2O)cc1Br` [Example 1, 4-Bromo-5-cyano-2-pyridyl 3-deoxy-3-[4-(3,4,5-trifluorophenyl)-1H-1,2,3-triazol-1-yl]-1-thio-α-D-galactopyranoside], `OC[C@H]1O[C@H](Sc2cc(Cl)ccn2)[C@H](O)[C@@H](n2cc(-c3cc(F)c(F)c(F)c3)nn2)[C@H]1O` [Example 7, 4-Chloro-2-pyridyl 3-deoxy-3-[4-(3,4,5-trifluorophenyl)-1H-1,2,3-triazol-1-yl]-1-thio-α-D-galactopyranoside] is 2.7-fold higher in Kd: 2.6 µM for the first, 6.9 µM for the second.

`N#Cc1ncc(S[C@H]2O[C@H](CO)[C@H](O)[C@H](n3cc(-c4cc(F)c(Cl)c(F)c4)nn3)[C@H]2O)cc1Br` [Example 12, 5-Bromo-6-cyano-3-pyridyl 3-deoxy-3-[4-(4-chloro-3,5-difluorophenyl)-1H-1,2,3-triazol-1-yl]-1-thio-α-D-galactopyranoside] showed a Kd of 7 µM.

System: galectins
Test: not given
Conditions: relative to lactose, all galectins; cited from earlier work

In the case of `O=C[C@H](O)[C@@H](O)[C@@H](O)[C@H](O)CO` [D-galactose], the “affinity, times lower than lactose” value is listed as 50-100 times.

Same assay, conditions: reviewed by Leffler 2001, Leffler et al. 2004; read-out: Kd, all galectins; cited from earlier work

In the case of `OC[C@H]1O[C@@H](O[C@H]2[C@H](O)[C@@H](O)C(O)O[C@@H]2CO)[C@H](O)[C@@H](O)[C@H]1O` (some centres unmarked) [lactose], the Kd is given as 500 to 1000 µM.
